Assay results reported in PMC9930818, “2-((1H-Benzo[d]imidazol-2-yl)amino)benzo[d]thiazole-6-sulphonamides: a class of carbonic anhydrase II and VII-selective inhibitors” (Journal of Enzyme Inhibition and Medicinal Chemistry, 2023).
Where two headings read alike, the source gives them in different places.

Assays:
Experiment in all cases: stopped-flow CO2 hydration assay
Format in all cases: biochemical
[1] = molecular target: T1, hCA VII (Homo sapiens, UniProt P43166)
T1 construct: gene CA7; recombinant, obtained in-house as reported earlier; cytosolic isoform
Description: stopped-flow CO2 hydration assay on hCA VII

[2] = molecular target: T2, hCA I (Homo sapiens, UniProt P00915)
T2 construct: gene CA1; recombinant, obtained in-house as reported earlier; cytosolic isoform
Description: stopped-flow CO2 hydration assay on hCA I

[3] = molecular target: T3, hCA II (Homo sapiens, UniProt P00918)
T3 construct: gene CA2; recombinant, obtained in-house as reported earlier; cytosolic isoform
Description: stopped-flow CO2 hydration assay on hCA II

[4] = molecular target: T4, hCA IV (Homo sapiens, UniProt P22748)
T4 construct: gene CA4; recombinant, obtained in-house as reported earlier
Description: stopped-flow CO2 hydration assay on hCA IV

[5] = molecular target: T1, hCA VII; settings: read-out: KI (nM)^a / hCA I
[6] = molecular target: T3, hCA II; settings: read-out: KI (nM)^a / hCA I
[7] = molecular target: T4, hCA IV; settings: read-out: KI (nM)^a / hCA I

T2 sequence (P00915 2-261): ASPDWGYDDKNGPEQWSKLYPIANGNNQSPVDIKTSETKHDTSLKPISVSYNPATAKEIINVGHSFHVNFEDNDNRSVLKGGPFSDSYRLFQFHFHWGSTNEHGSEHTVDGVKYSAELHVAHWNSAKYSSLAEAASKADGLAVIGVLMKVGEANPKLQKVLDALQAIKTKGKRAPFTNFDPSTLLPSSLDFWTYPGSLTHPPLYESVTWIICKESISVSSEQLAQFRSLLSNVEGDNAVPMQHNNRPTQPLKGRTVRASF
T1 sequence (P43166 whole entry, canonical isoform): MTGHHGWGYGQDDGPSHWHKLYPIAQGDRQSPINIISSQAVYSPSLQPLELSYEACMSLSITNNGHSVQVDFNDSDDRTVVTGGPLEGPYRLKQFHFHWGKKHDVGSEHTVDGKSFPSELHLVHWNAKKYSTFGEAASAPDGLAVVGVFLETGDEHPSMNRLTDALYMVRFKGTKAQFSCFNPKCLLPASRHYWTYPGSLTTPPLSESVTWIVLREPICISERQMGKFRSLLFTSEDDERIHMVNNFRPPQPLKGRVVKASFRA
T4 sequence (P22748 19-284): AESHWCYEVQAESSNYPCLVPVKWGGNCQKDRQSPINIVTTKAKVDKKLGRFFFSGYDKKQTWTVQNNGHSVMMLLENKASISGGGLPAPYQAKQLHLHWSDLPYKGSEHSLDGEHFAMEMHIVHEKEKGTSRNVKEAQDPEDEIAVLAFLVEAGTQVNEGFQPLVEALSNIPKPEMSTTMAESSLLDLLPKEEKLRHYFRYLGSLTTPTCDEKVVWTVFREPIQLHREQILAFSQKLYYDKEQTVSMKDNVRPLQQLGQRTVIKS

SMILES | Ki [1] [nM] | Ki [2] [nM] | Ki [3] [nM] | Ki [4] [nM] | Ki [5] [nM] | Ki [6] [nM] | Ki [7] [nM]
NS(=O)(=O)c1ccc2nc(NC3=NCCN3)sc2c1 [6a, 2-((4,5-Dihydro-1H-imidazol-2-yl)amino)benzo[d]thiazole-6-sulphonamide] | 56.3 | 422 | 37.6 | > 100000 | – | – | –
CC1CN=C(Nc2nc3ccc(S(N)(=O)=O)cc3s2)N1 (stereo not shown) [6b, 2-((5-Methyl-4,5-dihydro-1H-imidazol-2-yl)amino)benzo[d]thiazole-6-sulphonamide] | 37.4 | 568 | 48.1 | > 100000 | – | – | –
NS(=O)(=O)c1ccc2nc(NC3=NC4CCCCC4N3)sc2c1 (stereo not shown) [6c, 2-((3a,4,5,6,7,7a-hexahydro-1H-benzo[d]imidazol-2-yl)amino)benzo[d]thiazole-6-sulphonamide] | 82.5 | 7590 | 65.6 | > 100000 | – | – | –
NS(=O)(=O)c1ccc2nc(Nc3nc4ccccc4[nH]3)sc2c1 [7a, 2-((1H-benzo[d]imidazol-2-yl)amino)benzo[d]thiazole-6-sulphonamide] | 66.9 | 4930 | 84 | > 100000 | – | – | –
NS(=O)(=O)c1ccc2nc(Nc3nc4ccc(C(F)(F)F)cc4[nH]3)sc2c1 [7b, 2-((6-(Trifluoromethyl)-1H-benzo[d]imidazol-2-yl)amino)benzo[d]thiazole-6-sulphonamide] | 452 | 8100 | 375 | > 100000 | – | – | –
NS(=O)(=O)c1ccc2nc(Nc3nc4ccc(Cl)cc4[nH]3)sc2c1 [7c, 2-((6-Chloro-1H-benzo[d]imidazol-2-yl)amino)benzo[d]thiazole-6-sulphonamide] | 694 | 9530 | 578 | > 100000 | – | – | –
O=S(=O)(NC1=NCCN1)c1ccc2nc(NC3=NCCN3)sc2c1 [9a, N-(4,5-Dihydro-1H-imidazol-2-yl)-2-((4,5-dihydro-1H-imidazol-2-yl)amino)benzo[d]thiazole-6-sulphonamide] | – | > 100000 | – | – | > 100000 | > 100000 | > 100000
CC1CN=C(Nc2nc3ccc(S(=O)(=O)NC4=NCC(C)N4)cc3s2)N1 (stereo not shown) [9b] | – | > 100000 | – | – | > 100000 | > 100000 | > 100000
O=S(=O)(NC1=NC2CCCCC2N1)c1ccc2nc(NC3=NC4CCCCC4N3)sc2c1 (stereo not shown) [9c, N-(3a,4,5,6,7,7a-hexahydro-1H-benzo[d]imidazol-2-yl)-2-((3a,4,5,6,7,7a-hexahydro-1H-benzo[d]imidazol-2-yl)amino)benzo[d]thiazole-6-sulphonamide] | – | > 100000 | – | – | > 100000 | > 100000 | > 100000
O=S(=O)(Nc1nc2ccccc2[nH]1)c1ccc2nc(Nc3nc4ccccc4[nH]3)sc2c1 [9d] | – | > 100000 | – | – | > 100000 | > 100000 | > 100000
